Several values for one entry are separate records, joined by “and”; a condition that tells them apart may be missing. Equal values may be shown once.
Biological target: T1, PfMDH (Plasmodium falciparum, UniProt Q6VVP7)
T1 construct: The full-length WT PfMDH gene was cloned into pETM-13; made in house; host or cells: E. coli Rosetta 2 (DE3) pLysS
Experiment: Thermal shift assay (TSA)
Type: binding
Details: for TSA melting curve raw signal: triplicate columns; for TSA melting curve raw fluorescence signal: three replicate columns
Protocol: The TSA experiment was conducted in a BioRad CSX 96 (Biorad). Each reaction consisted of 1 mM of compound (100 mM stock in 100% (v/v) DMSO) and 10 μM PfMDH in 100 mM Na–phosphate buffer pH 7.4, 400 mM NaCl, and 10× Sypro Orange (Invitrogen) for a total volume of 100 μl. Control experiments were performed with 1% (v/v) DMSO. Inflection points were determined using BioRad CFX96™ control software. Generally, a temperature increase of over 1 °C is interpreted as a result of the stabilization of the protein-ligand interaction. On the contrary, a negative shift is considered a destabilization caused by the fragment.

T1 sequence (Q6VVP7 entry or part of it): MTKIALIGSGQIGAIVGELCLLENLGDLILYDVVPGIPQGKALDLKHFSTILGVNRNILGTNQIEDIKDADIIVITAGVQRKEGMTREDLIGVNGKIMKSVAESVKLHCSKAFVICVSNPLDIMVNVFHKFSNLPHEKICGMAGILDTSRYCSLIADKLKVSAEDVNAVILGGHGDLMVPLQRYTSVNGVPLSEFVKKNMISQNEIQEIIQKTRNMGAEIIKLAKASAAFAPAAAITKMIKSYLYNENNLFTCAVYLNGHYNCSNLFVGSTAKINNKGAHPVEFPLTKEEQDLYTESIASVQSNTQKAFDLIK

Cc1ccc(-c2csc(N)n2)cc1C [compound 5a]
ΔTm at 1000 µM (1 mM compound vs DMSO control): -4 °C | Tm (1 mM compound, 10 μM PfMDH, DMSO control Tm 58): 54.0 ± 0.2 °C | TSA melting curve raw signal (Temperature 25): 4361,22691625664 and 4136,47480077282 | TSA melting curve raw signal (Temperature 28.5): 4004,87351225735 and 4183,98281996697 and 3977,18518163549 | TSA melting curve raw signal (Temperature 29): 3986,17580138025 and 4159,213140841 and 3954,9246822172 | TSA melting curve raw signal (Temperature 29.5): 3965,52273011401 and 4133,77316232738 and 3931,4868089647 | TSA melting curve raw signal (Temperature 30): 3942,69196918976 and 4107,074098257 and 3906,46894255822 | TSA melting curve raw signal (Temperature 30.5): 3918,20361111847 and 4079,7505229192 and 3880,66961233132 | TSA melting curve raw signal (Temperature 31): 3892,85755253156 and 4052,78803951145 and 3854,85757088369 | TSA melting curve raw signal (Temperature 31.5): 3868,35453137919 and 4026,78761104422 and 3830,51973110108 | TSA melting curve raw signal (Temperature 32): 3846,14582452398 and 4002,89304325356 and 3808,96381740298 | TSA melting curve raw signal (Temperature 32.5): 3827,35535230328 and 3981,88234223881 and 3791,26035282333 | TSA melting curve raw signal (Temperature 33): 3812,58320085949 and 3964,3028642829 and 3777,54515038218 | TSA melting curve raw signal (Temperature 33.5): 3801,69756150235 and 3949,2862317403 and 3767,92816787175 | TSA melting curve raw signal (Temperature 34): 3794,14835836044 and 3937,14669832695 and 3761,78012801461 | TSA melting curve raw signal (Temperature 34.5): 3789,41768425867 and 3927,49825494442 and 3758,75347546959 | TSA melting curve raw signal (Temperature 35): 3787,20107392869 and 3920,20996880984 and 3758,62073564665 | TSA melting curve raw signal (Temperature 35.5): 3787,42445071158 and 3914,62343444524 and 3761,24267883563 | TSA melting curve raw signal (Temperature 36): 3789,87806432584 and 3911,1710367624 and 3766,28559252083 | TSA melting curve raw signal (Temperature 36.5): 3794,85229304264 and 3909,49204056619 and 3773,84282790235 | TSA melting curve raw signal (Temperature 37): 3802,25424487634 and 3909,25385384206 and 3783,72084315967 | TSA melting curve raw signal (Temperature 37.5): 3812,04395610452 and 3910,368484837 and 3795,67572672777 | TSA melting curve raw signal (Temperature 38): 3823,44040340727 and 3913,02621291175 and 3809,89581343172 | TSA melting curve raw signal (Temperature 38.5): 3837,03387753428 and 3917,20362777738 and 3826,4956570889 | TSA melting curve raw signal (Temperature 39): 3852,32039847376 and 3922,75702566821 and 3845,46925064995 | TSA melting curve raw signal (Temperature 39.5): 3869,53236426586 and 3930,26334549594 and 3867,32940969988 | TSA melting curve raw signal (Temperature 40): 3888,57436192082 and 3939,63549689652 and 3891,99828571263 | TSA melting curve raw signal (Temperature 40.5): 3909,9422248531 and 3951,08452102982 and 3919,26474950283 | TSA melting curve raw signal (Temperature 41): 3933,37089433234 and 3964,6560667334 and 3949,14976176316 | TSA melting curve raw signal (Temperature 41.5): 3959,61189650686 and 3980,53295877896 and 3981,80921424824 | TSA melting curve raw signal (Temperature 42): 3988,71833711846 and 3998,73387424263 and 4016,77538143681 | TSA melting curve raw signal (Temperature 42.5): 4021,21607007206 and 4019,84430210471 and 4054,60967755587 | TSA melting curve raw signal (Temperature 43): 4057,66089779623 and 4044,0111947974 and 4095,39361771176 | TSA melting curve raw signal (Temperature 43.5): 4098,50799079596 and 4071,35680793258 and 4139,49703067488 | TSA melting curve raw signal (Temperature 44): 4143,7029279742 and 4102,93490558282 and 4187,23267299696 | TSA melting curve raw signal (Temperature 44.5): 4193,76415817757 and 4139,12758979339 | TSA melting curve raw fluorescence signal (Temperature 73.5): 6299,79889324093 and 6231,78067625527 and 6109,60097267495 | TSA melting curve raw fluorescence signal (Temperature 74): 6263,77685489112 and 6199,60301810331 and 6079,58574419186 | TSA melting curve raw fluorescence signal (Temperature 74.5): 6227,81230039343 and 6168,07294306546 and 6050,3648537714

From publication PMC8355244, “A fragment-based approach identifies an allosteric pocket that impacts malate dehydrogenase activity” (Communications Biology, 2021)
